Laboratory results reported in ChEMBL document CHEMBL1158091, “Amphimedosides, 3-alkylpyridine glycosides from a marine sponge Amphimedon sp” (J Nat Prod, 2006).
Values after ≈ are worked out from the molar mass of the structure shown.

system: P388; assay: Cytotoxicity against mouse P388 cells by MTT assay; type: functional, cell-based

Point of comparison: `CON(CCCCCCCCCCC#CCCc1cccnc1)[C@@H]1O[C@H](CO)[C@@H](O)[C@H](O)[C@H]1O` [AMPHIMEDOSIDE C], IC50 5 µg/mL (≈ 10.4 µM). Against it:
- CON(CC(C)CCCCCCCCCCc1cccnc1)[C@@H]1O[C@H](CO)[C@@H](O)[C@H](O)[C@H]1O (stereo not given in full) [AMPHIMEDOSIDE D] — 11-fold lower, 0.45 µg/mL (≈ 0.96 µM)
- CON(CCCCCCCCCCC#CCCCCc1cccnc1)[C@@H]1O[C@H](CO)[C@@H](O)[C@H](O)[C@H]1O [AMPHIMEDOSIDE A] — 2.2-fold higher, 11 µg/mL (≈ 21.7 µM)
- CON(CCCC/C=C\CCCCCCCCc1cccnc1)[C@@H]1O[C@H](CO)[C@@H](O)[C@H](O)[C@H]1O [AMPHIMEDOSIDE E] — 2.3-fold lower, 2.2 µg/mL (≈ 4.58 µM)
- CON(CCCCCCCCC#CCCCCc1cccnc1)[C@@H]1O[C@H](CO)[C@@H](O)[C@H](O)[C@H]1O [AMPHIMEDOSIDE B] — 2.2-fold higher, 11 µg/mL (≈ 23 µM)
